Values of other authors in patent US20180344730A1, “MEDICAMENT FOR TREATING MENTAL AND BEHAVIOURAL DISORDERS” (Sumitomo Dainippon Pharma Co., Ltd., priority 2012, published 2018).

What was measured:
[1] = molecular target: T1, serotonin 5-HT1A receptors (Homo sapiens, UniProt P08908)
T1 sequence (P08908 1-422): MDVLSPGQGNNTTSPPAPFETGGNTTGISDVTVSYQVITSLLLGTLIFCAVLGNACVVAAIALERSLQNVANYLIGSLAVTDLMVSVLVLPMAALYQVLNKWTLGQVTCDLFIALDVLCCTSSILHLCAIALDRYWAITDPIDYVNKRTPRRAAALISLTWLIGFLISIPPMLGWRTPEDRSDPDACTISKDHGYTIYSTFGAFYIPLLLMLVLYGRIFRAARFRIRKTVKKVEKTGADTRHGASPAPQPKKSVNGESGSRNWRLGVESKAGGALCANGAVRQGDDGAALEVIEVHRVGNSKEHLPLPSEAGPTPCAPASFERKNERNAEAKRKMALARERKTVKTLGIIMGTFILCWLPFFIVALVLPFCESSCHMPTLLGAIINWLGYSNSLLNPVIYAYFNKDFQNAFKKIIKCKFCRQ

[2] = molecular target: T2, noradrenaline α2C receptors (Homo sapiens, UniProt P18825)
T2 sequence (P18825 1-462): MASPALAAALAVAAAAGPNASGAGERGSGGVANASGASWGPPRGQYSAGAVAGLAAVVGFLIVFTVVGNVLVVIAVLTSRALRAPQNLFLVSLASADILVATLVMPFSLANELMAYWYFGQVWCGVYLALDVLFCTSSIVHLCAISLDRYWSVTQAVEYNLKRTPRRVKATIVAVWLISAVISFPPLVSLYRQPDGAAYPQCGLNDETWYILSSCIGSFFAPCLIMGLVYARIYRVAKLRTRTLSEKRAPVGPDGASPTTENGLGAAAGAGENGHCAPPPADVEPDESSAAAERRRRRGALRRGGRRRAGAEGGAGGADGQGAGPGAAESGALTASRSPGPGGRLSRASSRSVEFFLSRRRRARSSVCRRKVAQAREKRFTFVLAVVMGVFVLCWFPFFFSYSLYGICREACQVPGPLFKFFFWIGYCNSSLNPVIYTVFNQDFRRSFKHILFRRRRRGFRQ

dopamine D2 receptors = dopamine D2 receptors (Homo sapiens, UniProt P14416)
[3] = molecular target: serotonin 5-HT2A receptors (Homo sapiens, UniProt P28223)
histamine H1 receptors = histamine H1 receptors (Homo sapiens, UniProt P35367)
muscarinic M1 receptors = molecular target: T3, muscarinic M1 receptors (Homo sapiens, UniProt P11229)
T3 sequence (P11229 1-460): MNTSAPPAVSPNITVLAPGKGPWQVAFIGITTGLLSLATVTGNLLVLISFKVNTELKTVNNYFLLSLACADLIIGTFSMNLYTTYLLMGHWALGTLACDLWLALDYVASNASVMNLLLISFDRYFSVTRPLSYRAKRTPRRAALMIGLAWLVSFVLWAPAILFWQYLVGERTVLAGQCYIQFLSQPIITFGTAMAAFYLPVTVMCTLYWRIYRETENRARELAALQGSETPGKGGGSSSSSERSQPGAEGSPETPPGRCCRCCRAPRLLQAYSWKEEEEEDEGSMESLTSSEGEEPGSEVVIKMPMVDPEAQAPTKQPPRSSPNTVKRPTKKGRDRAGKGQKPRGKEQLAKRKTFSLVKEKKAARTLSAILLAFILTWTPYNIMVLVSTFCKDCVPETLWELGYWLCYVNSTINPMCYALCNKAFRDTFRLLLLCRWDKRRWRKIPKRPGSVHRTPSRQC

[4] = molecular target: serotonin 5-HT7 receptors (Homo sapiens, UniProt P34969)
serotonin 5-HT7 receptors, sequence (P34969 whole entry): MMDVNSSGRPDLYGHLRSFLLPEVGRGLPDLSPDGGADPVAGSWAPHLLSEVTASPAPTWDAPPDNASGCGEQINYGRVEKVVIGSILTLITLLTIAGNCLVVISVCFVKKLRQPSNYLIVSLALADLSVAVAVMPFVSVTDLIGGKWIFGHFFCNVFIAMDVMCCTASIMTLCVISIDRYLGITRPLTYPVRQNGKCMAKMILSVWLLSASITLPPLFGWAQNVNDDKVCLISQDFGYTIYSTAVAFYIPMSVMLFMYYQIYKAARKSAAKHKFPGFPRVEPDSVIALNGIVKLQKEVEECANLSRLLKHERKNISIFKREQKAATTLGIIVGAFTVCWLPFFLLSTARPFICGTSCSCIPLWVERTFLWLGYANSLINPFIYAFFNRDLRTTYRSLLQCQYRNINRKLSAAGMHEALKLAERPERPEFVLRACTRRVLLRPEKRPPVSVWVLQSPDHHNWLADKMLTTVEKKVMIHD

serotonin 5-HT2A receptors, sequence (P28223 whole entry): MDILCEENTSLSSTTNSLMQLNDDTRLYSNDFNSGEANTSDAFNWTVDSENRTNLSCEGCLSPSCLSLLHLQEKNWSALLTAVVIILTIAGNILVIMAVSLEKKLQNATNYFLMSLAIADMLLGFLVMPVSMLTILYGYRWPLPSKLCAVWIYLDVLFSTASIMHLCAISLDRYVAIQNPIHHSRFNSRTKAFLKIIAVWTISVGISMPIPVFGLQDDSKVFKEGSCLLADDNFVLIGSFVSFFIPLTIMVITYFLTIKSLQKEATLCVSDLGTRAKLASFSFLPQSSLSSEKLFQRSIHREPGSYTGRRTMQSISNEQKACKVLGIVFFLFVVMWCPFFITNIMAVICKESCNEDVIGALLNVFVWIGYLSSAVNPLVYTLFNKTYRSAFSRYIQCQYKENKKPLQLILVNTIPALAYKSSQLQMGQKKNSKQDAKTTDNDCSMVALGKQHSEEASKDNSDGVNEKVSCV
histamine H1 receptors, sequence (P35367 whole entry): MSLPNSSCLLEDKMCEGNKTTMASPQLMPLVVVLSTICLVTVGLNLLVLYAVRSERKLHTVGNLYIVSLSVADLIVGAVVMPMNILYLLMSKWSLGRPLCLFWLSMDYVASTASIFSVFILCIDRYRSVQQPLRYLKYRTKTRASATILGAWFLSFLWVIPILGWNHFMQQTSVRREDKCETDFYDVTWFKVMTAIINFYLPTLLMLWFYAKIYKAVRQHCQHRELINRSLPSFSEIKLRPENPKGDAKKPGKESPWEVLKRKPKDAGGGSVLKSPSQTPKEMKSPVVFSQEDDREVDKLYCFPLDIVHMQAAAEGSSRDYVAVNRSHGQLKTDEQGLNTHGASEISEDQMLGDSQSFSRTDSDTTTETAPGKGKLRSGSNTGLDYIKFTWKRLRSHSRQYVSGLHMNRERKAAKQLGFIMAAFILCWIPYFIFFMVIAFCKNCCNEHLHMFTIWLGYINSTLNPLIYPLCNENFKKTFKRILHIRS
dopamine D2 receptors, sequence (P14416 whole entry): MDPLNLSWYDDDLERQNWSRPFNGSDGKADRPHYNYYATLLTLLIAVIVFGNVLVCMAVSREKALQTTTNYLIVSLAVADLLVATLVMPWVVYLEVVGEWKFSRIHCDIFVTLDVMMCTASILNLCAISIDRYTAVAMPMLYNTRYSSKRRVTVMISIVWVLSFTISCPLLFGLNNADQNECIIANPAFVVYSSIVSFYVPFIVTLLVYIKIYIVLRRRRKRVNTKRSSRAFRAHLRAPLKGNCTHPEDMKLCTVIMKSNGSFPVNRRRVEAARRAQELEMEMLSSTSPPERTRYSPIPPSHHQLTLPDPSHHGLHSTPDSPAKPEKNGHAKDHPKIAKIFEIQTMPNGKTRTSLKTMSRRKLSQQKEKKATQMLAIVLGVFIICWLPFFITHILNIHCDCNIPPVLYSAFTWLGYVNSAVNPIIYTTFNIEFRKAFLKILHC

- affinity for serotonin 5-HT1A receptors [1]: high affinity
- affinity for noradrenaline α2C receptors [2]: high affinity
- affinity for dopamine D2 receptors (dopamine D2 receptors): high affinity
- affinity for serotonin 5-HT2A receptors [3]: high affinity
- affinity for histamine H1 receptors (histamine H1 receptors): minimal to no affinity
- affinity for muscarinic M1 receptors (muscarinic M1 receptors): minimal to no affinity
- affinity for serotonin 5-HT7 receptors [4]: high affinity
Structure (SMILES): O=C1[C@@H]2[C@H]3CC[C@H](C3)[C@@H]2C(=O)N1C[C@@H]1CCCC[C@H]1CN1CCN(c2nsc3ccccc23)CC1 [Lurasidone, (3aR, 4S, 7R, 7aS)-2-{(1R, 2R)-2-[4-(1,2-benzisothiazol-3-yl)piperazin-1-ylmethyl]cyclo-hexylmethyl}hexahydro-4,7-methano-2H-isoindole-1,3-dione]
